This passage reports Ki results from patent US12559529B2, “NPY2 receptor agonists” (Boehringer Ingelheim International GmbH, priority 2019, dated 2026).

*1 amine or outer side, *2 acyl side, *3 side chain or, on linkers, in order; H or OH if unused. Where a SMILES comes first, the peptide text is derived from it. Side-chain parts run from the residue outwards. The star is where a group is joined. C18 diacid = O=C(O)CCCCCCCCCCCCCCCCC(=O)*; γGlu = O=C(O)[C@H](CCC(=O)[*:2])N[*:1]; Isovaleryl = CC(C)CC(=O)*; AEEA = NCCOCCOCC(=O)O

The target in the assay is T1, Human Neuropeptide Y2 Receptor (Homo sapiens, UniProt P49146).
T1 construct: purchased CHEMICON HTS066M
T1 sequence (P49146 1-381): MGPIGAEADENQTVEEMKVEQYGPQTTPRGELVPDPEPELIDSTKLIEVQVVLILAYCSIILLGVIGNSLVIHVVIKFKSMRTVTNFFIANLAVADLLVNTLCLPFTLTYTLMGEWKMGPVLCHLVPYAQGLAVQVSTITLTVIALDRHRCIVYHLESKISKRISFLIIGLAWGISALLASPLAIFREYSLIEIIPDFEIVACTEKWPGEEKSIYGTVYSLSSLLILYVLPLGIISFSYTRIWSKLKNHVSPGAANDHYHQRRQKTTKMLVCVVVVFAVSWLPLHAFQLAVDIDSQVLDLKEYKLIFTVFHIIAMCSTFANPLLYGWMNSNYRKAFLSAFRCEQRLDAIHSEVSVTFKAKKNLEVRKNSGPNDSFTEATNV
In words: Radioligand binding competition assay (RLB). The settings on record: Table 3; human 125I-PYY (1-36) 0.02 nM, Y2 receptor membranes; read-out: Ki. The essentials:
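Competition binding at commercial human NPY Y2 membrane preparations, 0.5 μg protein per well, 2 h incubation at room temperature. Bound and free ligand were separated on GF/C filters and counted; IC50 was fitted by nonlinear regression.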
As a reminder, the Ki is the equilibrium dissociation constant of an inhibitor or competing ligand from its target. Take `CC(C)CC(=O)N[C@@H](C)C(=O)N1CCC[C@H]1C(=O)N[C@@H](CCC(=O)O)C(=O)N[C@@H](CCCCNC(=O)COCCOCCNC(=O)COCCOCCNC(=O)CC[C@H](NC(=O)CCCCCCCCCCCCCCCCC(=O)O)C(=O)O)C(=O)N1CCC[C@H]1C(=O)N[C@@H](CCC(=O)O)C(=O)N[C@@H](C)C(=O)N[C@@H](CC(=O)O)C(=O)N[C@@H](C)C(=O)N[C@@H](CO)C(=O)N1CCC[C@H]1C(=O)N[C@@H](CCC(=O)O)C(=O)N[C@@H](CCC(=O)O)C(=O)N[C@H](C(=O)N[C@@H](CCC(N)=O)C(=O)N[C@@H](CCCNC(=N)N)C(=O)N[C@@H](Cc1ccc(O)cc1)C(=O)N[C@@H](Cc1ccc(O)cc1)C(=O)N[C@H](C(=O)N[C@@H](CO)C(=O)N[C@@H](CC(C)C)C(=O)N[C@@H](CCCNC(=N)N)C(=O)N[C@@H](Cc1c[nH]cn1)C(=O)N[C@@H](Cc1ccc(O)cc1)C(=O)N[C@@H](Cc1ccc(O)cc1)C(=O)N[C@@H](CC(N)=O)C(=O)N[C@@H](Cc1c[nH]c2ccccc12)C(=O)N[C@@H](CC(C)C)C(=O)N[C@H](C(=O)N[C@@H](CCCNC(=N)N)C(=O)N[C@@H](CCC(N)=O)C(=O)N[C@@H](CCCNC(=N)N)C(=O)N[C@@H](Cc1ccc(O)cc1)C(N)=O)[C@@H](C)O)C(C)C)[C@@H](C)O` [Compound 10, N{alpha-4}-(3-methylbutanoyl)-N{epsilon-7}-[2-(2-{2-[2-(2-{2-[(4S)-4-carboxy-4-(17-carboxyheptadecanamido)butanamido]ethoxy}ethoxy)acetamido]ethoxy}ethoxy)acetamido]-[4A,7K,9E,10A,17T,18Q,22V,28Y,30W,31L]hPYY (4-36)]: the inhibitory constant (Ki) came out at 1.28 nM.

With `CC(C)CC(=O)N[C@@H](C)C(=O)N1CCC[C@H]1C(=O)N[C@@H](CCC(=O)O)C(=O)N[C@@H](CCCCNC(=O)COCCOCCNC(=O)COCCOCCNC(=O)CC[C@H](NC(=O)CCCCCCCCCCCCCCCCC(=O)O)C(=O)O)C(=O)N1CCC[C@H]1C(=O)N[C@@H](CCC(=O)O)C(=O)N[C@@H](CCC(=O)O)C(=O)N[C@@H](CCC(=O)O)C(=O)N[C@H](C(=O)N[C@@H](CO)C(=O)N1CCC[C@H]1C(=O)N[C@@H](CCC(=O)O)C(=O)N[C@@H](CCC(=O)O)C(=O)N[C@@H](CC(C)C)C(=O)N[C@@H](CCC(N)=O)C(=O)N[C@@H](CCCNC(=N)N)C(=O)N[C@@H](Cc1ccc(O)cc1)C(=O)N[C@@H](Cc1ccc(O)cc1)C(=O)N[C@H](C(=O)N[C@@H](CO)C(=O)N[C@@H](CC(C)C)C(=O)N[C@@H](CCCNC(=N)N)C(=O)N[C@@H](Cc1c[nH]cn1)C(=O)N[C@@H](Cc1ccc(O)cc1)C(=O)N[C@@H](Cc1ccc(O)cc1)C(=O)N[C@@H](CC(N)=O)C(=O)N[C@@H](Cc1c[nH]c2ccccc12)C(=O)N[C@@H](CC(C)C)C(=O)N[C@H](C(=O)N[C@@H](CCCNC(=N)N)C(=O)N[C@@H](CCC(N)=O)C(=O)N[C@@H](CCCNC(=N)N)C(=O)N[C@@H](Cc1ccc(O)cc1)C(N)=O)[C@@H](C)O)C(C)C)C(C)C` [Compound 5, N{alpha-4}-(3-methylbutanoyl)-N{epsilon-7}-[2-(2-{2-[2-(2-{2-[(4S)-4-carboxy-4-(17-carboxyheptadecanamido)butanamido]ethoxy}ethoxy)acetamido]ethoxy}ethoxy)acetamido]-[4A,7K,9E,11E,12V,18Q,22V,28Y,30W,31L]hPYY (4-36)] (Isovaleryl-APEK([AEEA-AEEA-γGlu-C18 diacid])PEEEVSPEELQRYYVSLRHYYNWLTRQRY-NH2), the Ki was 14.8 nM.

For `CC(C)CC(=O)N[C@@H](C)C(=O)N1CCC[C@H]1C(=O)N[C@@H](CCC(=O)O)C(=O)N[C@@H](CCCCNC(=O)COCCOCCNC(=O)COCCOCCNC(=O)CC[C@H](NC(=O)CCCCCCCCCCCCCCCCC(=O)O)C(=O)O)C(=O)N1CCC[C@H]1C(=O)N[C@@H](CCC(=O)O)C(=O)N[C@@H](CCC(=O)O)C(=O)N[C@@H](CC(=O)O)C(=O)N[C@H](C(=O)N[C@@H](CCC(=O)O)C(=O)N1CCC[C@H]1C(=O)N[C@@H](CCC(=O)O)C(=O)N[C@@H](CCC(=O)O)C(=O)N[C@@H](CC(C)C)C(=O)N[C@@H](CCC(N)=O)C(=O)N[C@@H](CCCNC(=N)N)C(=O)N[C@@H](Cc1ccc(O)cc1)C(=O)N[C@@H](Cc1ccc(O)cc1)C(=O)N[C@H](C(=O)N[C@@H](CO)C(=O)N[C@@H](CC(C)C)C(=O)N[C@@H](CCCNC(=N)N)C(=O)N[C@@H](Cc1c[nH]cn1)C(=O)N[C@@H](Cc1ccc(O)cc1)C(=O)N[C@@H](Cc1ccc(O)cc1)C(=O)N[C@@H](CC(N)=O)C(=O)N[C@@H](Cc1c[nH]c2ccccc12)C(=O)N[C@@H](CC(C)C)C(=O)N[C@H](C(=O)N[C@@H](CCCNC(=N)N)C(=O)N[C@@H](CCC(N)=O)C(=O)N[C@@H](CCCNC(=N)N)C(=O)N[C@@H](Cc1ccc(O)cc1)C(N)=O)[C@@H](C)O)C(C)C)[C@@H](C)O` [Compound 48, N{alpha-4}-(3-methylbutanoyl)-N{epsilon-7}-[2-(2-{2-[2-(2-{2-[(4S)-4-carboxy-4-(17-carboxyheptadecanamido)butanamido]ethoxy}ethoxy)acetamido]ethoxy}ethoxy)acetamido]-[4A,7K,9E,12T,13E,18Q,22V,28Y,30W,31L]hPYY (4-36)], the inhibitory constant (Ki) stood at 38.9 nM.

With `CC(C)CC(=O)N[C@@H](C)C(=O)N1CCC[C@H]1C(=O)N[C@@H](CCC(=O)O)C(=O)N[C@@H](CCCCNC(=O)COCCOCCNC(=O)COCCOCCNC(=O)CC[C@H](NC(=O)CCCCCCCCCCCCCCCCC(=O)O)C(=O)O)C(=O)N1CCC[C@H]1C(=O)N[C@@H](CCC(=O)O)C(=O)N[C@@H](CCC(=O)O)C(=O)N[C@@H](CCC(=O)O)C(=O)N[C@@H](C)C(=O)N[C@@H](CO)C(=O)N1CCC[C@H]1C(=O)N[C@@H](CCC(=O)O)C(=O)N[C@@H](CCC(=O)O)C(=O)N[C@H](C(=O)N[C@@H](CCC(N)=O)C(=O)N[C@@H](CCCNC(=N)N)C(=O)N[C@@H](Cc1ccc(O)cc1)C(=O)N[C@@H](Cc1ccc(O)cc1)C(=O)N[C@H](C(=O)N[C@@H](CO)C(=O)N[C@@H](CC(C)C)C(=O)N[C@@H](CCCNC(=N)N)C(=O)N[C@@H](Cc1c[nH]cn1)C(=O)N[C@@H](Cc1ccc(O)cc1)C(=O)N[C@@H](Cc1ccc(O)cc1)C(=O)N[C@@H](CC(N)=O)C(=O)N[C@@H](Cc1c[nH]c2ccccc12)C(=O)N[C@@H](CC(C)C)C(=O)N[C@H](C(=O)N[C@@H](CCCNC(=N)N)C(=O)N[C@@H](CCC(N)=O)C(=O)N[C@@H](CCCNC(=N)N)C(=O)N[C@@H](Cc1ccc(O)cc1)C(N)=O)[C@@H](C)O)C(C)C)[C@@H](C)O` [Compound 80, N{alpha-4}-(3-methylbutanoyl)-N{epsilon-7}-[2-(2-{2-[2-(2-{2-[(4S)-4-carboxy-4-(17-carboxyheptadecanamido)butanamido]ethoxy}ethoxy)acetamido]ethoxy}ethoxy)acetamido]-[4A,7K,9E,11E,17T,18Q,22V,28Y,30W,31L]hPYY (4-36)], the inhibition constant (Ki) worked out at 6.96 nM.

`CC(C)CC(=O)N[C@@H](C)C(=O)N1CCC[C@H]1C(=O)N[C@@H](C)C(=O)N[C@@H](CCCCNC(=O)COCCOCCNC(=O)COCCOCCNC(=O)CC[C@H](NC(=O)CCCCCCCCCCCCCCCCC(=O)O)C(=O)O)C(=O)N1CCC[C@H]1C(=O)N[C@@H](CCC(=O)O)C(=O)N[C@@H](C)C(=O)N[C@@H](CC(=O)O)C(=O)N[C@@H](C)C(=O)N[C@@H](CCC(=O)O)C(=O)N1CCC[C@H]1C(=O)N[C@@H](CCC(=O)O)C(=O)N[C@@H](CCC(=O)O)C(=O)N[C@@H](CC(C)C)C(=O)N[C@@H](CCC(N)=O)C(=O)N[C@@H](CCCNC(=N)N)C(=O)N[C@@H](Cc1ccc(O)cc1)C(=O)N[C@@H](Cc1ccc(O)cc1)C(=O)N[C@H](C(=O)N[C@@H](CO)C(=O)N[C@@H](CC(C)C)C(=O)N[C@@H](CCCNC(=N)N)C(=O)N[C@@H](Cc1c[nH]cn1)C(=O)N[C@@H](Cc1ccc(O)cc1)C(=O)N[C@@H](Cc1ccc(O)cc1)C(=O)N[C@@H](CC(N)=O)C(=O)N[C@@H](Cc1c[nH]c2ccccc12)C(=O)N[C@@H](CC(C)C)C(=O)N[C@H](C(=O)N[C@@H](CCCNC(=N)N)C(=O)N[C@@H](CCC(N)=O)C(=O)N[C@@H](CCCNC(=N)N)C(=O)N[C@@H](Cc1ccc(O)cc1)C(N)=O)[C@@H](C)O)C(C)C` [Compound 207, N{alpha-4}-(3-methylbutanoyl)-N{epsilon-7}-[2-(2-{2-[2-(2-{2-[(4S)-4-carboxy-4-(17-carboxyheptadecanamido)butanamido]ethoxy}ethoxy)acetamido]ethoxy}ethoxy)acetamido]-[4A,6A,7K,9E,10A,13E,18Q,22V,28Y,30W,31L]hPYY (4-36)]: the inhibition constant Ki turned out to be 1.07 nM.
